This is an account of results in PubChem BioAssay AID179 (DTP/NCI, 2004).

The test deals with CEM cells HIV-1 protection, formazan growth assay. The test can be described thus: NCI AIDS Antiviral Assay. To be noted: for IC50: measured here: growth of uninfected CEM cells. A digest of the protocol: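 Human CEM cells, uninfected and HIV-1-infected, received five drug concentrations, and growth was read by soluble formazan assay. Compounds giving at least 50% protection were retested; reproducible 100% protection defined confirmed active.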

Activity calls are given as the source filed them.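 Rule for the calls: active = compounds giving half or more protection of infected cells from virus-caused growth loss, again on retest; inactive = the rest.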 Where a SMILES comes first, the peptide text is derived from it. Bridges are numbered along the chain shown (N, C = ends). Roman numbers before positions name the chains, in order. [ ]: non-standard residue; d: D form. The star is where a group is joined. ξ: configuration not given here. Boc = CC(C)(C)OC(=O)*; ξV = CC(C)C(N)C(=O)O; OBn = c1ccc(CO*)cc1

For `NC(=O)NNc1nc2ccccc2c(=O)n1NC(=O)C(=O)Nc1ccc(Cl)cc1Cl`, the EC50 is more than 79.4 µM and the IC50 was more than 79.4 µM.
As for `c1ccc([P+](Cc2ccco2)(c2ccccc2)c2ccccc2)cc1`, the EC50 was more than 200 µM and the IC50 was 3.39 µM.
`Cc1n[nH]c(=O)n1/N=C/c1ccc([N+](=O)[O-])cc1`: the EC50 is more than 200 µM and the IC50 is more than 100 µM.
With `CC(C)(C)n1[nH]c(=O)n(C(C)(C)C)c1=O`, the EC50 was more than 200 µM and the concentration for half-maximal inhibition (IC50) was more than 200 µM.
In the case of `O=C1[C@@H]2C[C@@H](O)CN2C(=O)c2ccccc2N1CCCO`, the result was inactive.
On to `Cc1cc(=O)n2cn[nH]c2n1`, for which the EC50 is more than 200 µM and the IC50 is more than 200 µM.
As for `CCOC(=O)c1ccc(/C(C)=N/NC(N)=S)cc1`, the outcome was inactive.
With `CC(C)CC(NC(=O)C(Cc1cnc[nH]1)NC(=O)C(CC(N)=O)NC(=O)C(NC(=O)C(CO)NC(=O)C(Cc1ccc(O)cc1)NC(=O)C(CO)NC(=O)C(C)N)C(C)O)C(=O)O` (stereo not drawn) (H-ASYSTNHL-OH; configuration not given here), the EC50 is more than 70.8 µM and the IC50 was more than 70.8 µM.
With `OCc1ccc2[n+](c1)CCc1c-2[nH]c2ccccc12`, the EC50 was more than 77.6 µM and the IC50 was more than 77.6 µM.
Consider `CC(C)(Oc1ccc(/C=C/C(=O)c2ccc(Cl)cc2)cc1)C(=O)Nc1c(Cl)cccc1Cl`, for which the EC50 is more than 14.8 µM and the IC50 is more than 14.8 µM.
Consider `CC1CCCN2C(=O)CN(CCc3ccccc3)CC(=O)N12` (stereo not drawn), for which the outcome was inactive.
`COc1ccc(CCN(C)C2CCC(C#N)(c3ccc(OC)c(OC)c3)CC2)cc1OC` (stereo not drawn): the EC50 is more than 145 µM and the IC50 amounted to 74.1 µM.
In the case of `COc1ccc(OC2(c3cc(OC)ccc3OC)OC(=O)c3ccccc32)cc1` (stereo not drawn), the EC50 was more than 13.2 µM and the half-maximal inhibitory concentration (IC50) was more than 13.2 µM.
`O=c1c2ccccc2n2nnc3ccc(NCCCNCCNCCCNc4ccc5nnn6c7ccccc7c(=O)c4c56)c1c32`: the EC50 is more than 0.0501 µM and the IC50 was found to be 0.0347 µM.
As for `O=C(O)CCSc1nnc(COc2ccc(Cl)cc2)n1-c1ccccc1`, the EC50 was more than 200 µM and the IC50 was found to be 67.6 µM.
Regarding `C=CCC12CC(O)C(O)CC1(OC)OC(c1cc(OC)c(OC)c(OC)c1)C2C` (stereo not drawn), the EC50 is more than 200 µM and the IC50 worked out at 129 µM.
For the molecule `CC(=O)OCC1OC(n2c(=S)n(-c3ccc([N+](=O)[O-])cc3)c(=O)c3ccccc32)C(OC(C)=O)C(OC(C)=O)C1OC(C)=O` (stereo not drawn), the EC50 was more than 29.5 µM and the IC50 was more than 29.5 µM.
Regarding `CC1=NC(=O)C(C)(c2ccccc2)N1CCc1ccccc1` (stereo not drawn), the EC50 was more than 200 µM and the IC50 worked out at 45.7 µM.
Turning to `C[C@H]1C[C@H]2[C@@H]3CCC4=CC(=O)C=C[C@]4(C)C3=CC[C@]2(C)[C@@]1(O)C(=O)CO`, the EC50 was 102 µM and the IC50 amounted to 107 µM.
Take `Nc1ccc(/C=C/c2ccc(NC(=O)c3cc(S(=O)(=O)O)c4cccnc4c3O)cc2S(=O)(=O)O)c(S(=O)(=O)O)c1`: the EC50 was 58.9 µM and the IC50 was more than 200 µM.
As for `Nc1ncnc2oc(-c3cccs3)nc12`, the EC50 is more than 200 µM and the IC50 was more than 200 µM.
`COc1ccc(C2C3=CONC3CC3CCCCC32)cc1` (stereo not drawn): the EC50 is more than 200 µM and the IC50 came out at 77.6 µM.
As for `NC(CSSCC(N)C(=O)NC(Cc1ccc(O)cc1)C(=O)O)C(=O)NC(Cc1ccc(O)cc1)C(=O)O` (stereo not drawn) (I: H-Cys-Tyr-OH / II: H-Cys-Tyr-OH; disulfide I:1-II:1; configuration not given here), the EC50 is more than 200 µM and the 50% inhibitory concentration (IC50) is more than 200 µM.
`CCN(Cc1cccc(S(=O)(=O)[O-])c1)c1ccc(C(=C2C=CC(=[N+](CC)Cc3cccc(S(=O)(=O)O)c3)C=C2)c2ccccc2S(=O)(=O)O)cc1`: the result was inactive.
`Cc1cc(-c2ccc(N=Nc3c(S(=O)(=O)O)cc4cc(S(=O)(=O)O)cc(N)c4c3O)c(C)c2)ccc1N=Nc1ccc2c(S(=O)(=O)O)ccc(N)c2c1O`: the result was inactive.
Turning to `Cc1ccc(/C=C2\CCCC(C(NO)c3ccc(C)cc3)C2=NO)cc1` (stereo not drawn), the EC50 is more than 5.75 µM and the half-inhibitory concentration (IC50) was more than 5.75 µM.
Turning to `O=C([N-]/N=C/c1ccccc1)c1ccccc1[O-].[OH3+].[Zn+2]`, the EC50 was 162 µM and the IC50 is 166 µM.
On to `Cc1c(/C=N/NC(=S)Nc2ccccc2Cl)c(=O)n(-c2ccccc2)n1C`, for which the EC50 is more than 200 µM and the IC50 was found to be 26.9 µM.
Take `O=C1c2ccccc2C(=CC=C2c3ccccc3Sc3ccccc32)c2ccccc21`: the EC50 was more than 9.12 µM and the IC50 is more than 9.12 µM.
In the case of `CC(=O)OCC1OC(n2c(C#N)cc(=O)[nH]c2=O)CC1OC(C)=O` (stereo not drawn), the EC50 was more than 200 µM and the IC50 came to 57.5 µM.
With `CC(C)C(NC(=O)CNC(=O)OC(C)(C)C)C(=O)OCc1ccccc1` (stereo not drawn) (Boc-Gly-[ξV]-OBn), the EC50 was more than 200 µM and the IC50 stood at 148 µM.
For `CCC(=O)ONC(=O)Cn1ccc([N+](=O)[O-])n1`, the EC50 was more than 200 µM and the 50% inhibitory concentration (IC50) was 66.1 µM.
Turning to `NC(=O)c1cnc2cc(O)c(O)cc2c1`, the EC50 is more than 209 µM and the IC50 is 14.1 µM.
Turning to `N#CC(C#N)=Cc1ccccc1F`, the EC50 was more than 102 µM and the IC50 was determined as 17.4 µM.
In the case of `CC1=CC[P+](Cc2ccccc2)(c2ccccc2)C1` (stereo not drawn), the EC50 is more than 724 µM and the IC50 came to 40.7 µM.
Turning to `O=C1c2c(nc3ccccc3c2-c2ccccc2)CN1Nc1ccccc1`, the EC50 was more than 87.1 µM and the IC50 is more than 87.1 µM.
As to `O=C1c2c(c3c4ccccc4n(CC4CO4)c3c3[nH]c4ccccc4c23)C(=O)N1Cc1ccccc1` (stereo not drawn), the result was inactive.
`CCOC(=O)/C(=C/c1ccc(OC)cc1)C(=O)c1ccccc1`: the EC50 is more than 17 µM and the IC50 is more than 17 µM.
As to `CCOP(=S)(OCC)OC(=O)C(C)SSC` (stereo not drawn) (tested in a mixture with another compound), the EC50 is more than 200 µM and the half-maximal inhibitory concentration (IC50) came out at 95.5 µM.
As to `O=c1[nH]c(Nc2cccc(CO)c2)nc2nc[nH]c12`, the EC50 was more than 200 µM and the concentration for half-maximal inhibition (IC50) was more than 200 µM.
Take `C#CCOCn1cnc2c(N)ncnc21`: the EC50 was more than 1230 µM and the IC50 stood at 692 µM.
As to `Oc1c([Si](c2ccccc2)(c2ccccc2)c2ccccc2)cc2ccccc2c1-c1c(O)c([Si](c2ccccc2)(c2ccccc2)c2ccccc2)cc2ccccc12`, the EC50 was more than 50.1 µM and the IC50 is more than 50.1 µM.
In the case of `CC1CN2C(=O)[C@@H](OC(=O)Nc3cc([N+](=O)[O-])cc([N+](=O)[O-])c3)[C@H]3CC[C@@H]1[C@]32C` (stereo partly drawn), the EC50 was more than 100 µM and the IC50 turned out to be 55 µM.
Turning to `COc1ccc(-c2c(C3=NCCCN3)nnn2-c2ccccc2)cc1`, the EC50 was more than 759 µM and the IC50 is 282 µM.
On to `CC(C)(C)O/C=C1/C(=O)OC2C[C@@H](O[Si](C)(C)C(C)(C)C)CC12` (stereo partly drawn), for which the EC50 is more than 200 µM and the 50% inhibitory concentration (IC50) turned out to be 120 µM.
Consider `CC(=O)c1cccc(NC(=O)C(=O)NNc2n[nH]c(=S)n2N)c1`, for which the EC50 is more than 282 µM and the IC50 is 6.76 µM.
`CC(=O)Oc1ccc([As](=O)(O)O)cc1N` came in with an EC50 of more than 200 µM and an IC50 of more than 200 µM.

For orientation: EC50 means the midpoint of the concentration-response curve. By IC50 is commonly meant the concentration at which inhibition is half-maximal. Low values mean greater potency, high ones weaker potency.
